According to patent publication US7452997B2 (priority 2004, dated 2008):
Like-named read-outs stand apart in the source and are kept apart here.

Legend:
human CB1 receptor = molecular target: T1, human CB1 receptor (Homo sapiens, UniProt P21554); assay: biochemical; type: binding
T1 construct: expressed in transfected cells; host or cells: SK-N-MC cells, stably transfected with pcDNA3 CB-1 (human); semi-purified membrane pellet
Procedure: (§1) Binding Assay for CB1 or CB2 Agonists or Inverse Agonists
(§2) The human CB1 and CB2 receptors were stably expressed in SK-N-MC cells transfected with pcDNA3 CB-1 (human) or pcDNA3 CB-2 (human). The cells were grown in T-180 cell culture flasks under standard cell culture conditions at 37° C. in a 5% CO2 atmosphere. The cells were harvested by trysinization and homogenized in a homogenization buffer (10 mM Tris, 0.2 mM MgCl2, 5 mM KCl, with protease inhibitors aprotinin, leupeptin, pepstatin A and bacitracin) and centrifuged (2000 g). The supernatant was then centrifuged in 2M sucrose (31,300 g) to produce a semi-purified membrane pellet. The pellet was resuspended in homogenization and store at −80° C.
On the day of the assay, the pellet was thawed on ice and diluted in assay buffer (50 mM Tris-HCl, 5 mM MgCl2, 2.5 mM EDTA, 0.5 mg/mL fatty acid free bovine serum albumin, pH 7.5). […] The plate was covered and incubated for 90 minutes at 30° C. The contents were then aspirated onto a Packard […] GF/C filter bottom plate prewet with 0.5% polyethyleneimine. The wells of the polypropylene plate were rinsed and aspirated seven times with a 0.9% saline-0.5% TWEEN 20 solution. The […] plate was dried, a scintillation cocktail was added to each well and the counts representing binding were quantitated in a TOPCOUNT scintillation counter.
(§3) The IC50 binding values for compounds tested were calculated by linear regression and were obtained from studies in which varying compound concentrations were used.

human CB2 receptor = human CB2 receptor (Homo sapiens, UniProt P34972); assay: Binding assay, cannabinoid CB2 receptor ([3H]-CP-55,940 displacement); conditions: SK-N-MC cell membranes, radioligand CP-55,940 0.2 nM
Procedure: as §1, §2
On the day of the assay, the pellet was thawed on ice and diluted in assay buffer (50 mM Tris-HCl, 5 mM MgCl2, 2.5 mM EDTA, 0.5 mg/mL fatty acid free bovine serum albumin, pH 7.5). The diluted membrane was added with buffer, test compound or standard and the radioligand [H]^3+-CP-55,940_(0.2 nM) to the wells of a 96-well polypropylene plate. Non-specific binding was measured in wells containing 10 uM WIN 55,212. The plate was covered and incubated for 90 minutes at 30° C. The contents were then aspirated onto a Packard UNIFILTER GF/C filter bottom plate prewet with 0.5% polyethyleneimine. The wells of the polypropylene plate were rinsed and aspirated seven times with a 0.9% saline-0.5% TWEEN 20 solution. The UNIFILTER plate was dried, a scintillation cocktail was added to each well and the counts representing binding were quantitated in a TOPCOUNT scintillation counter.
as §3

[1] = Cannabinoid CB2 Receptor Binding IC50, human CB2 receptor
[2] = human CB2 receptor, read-out: Cannabinoid CB2 Receptor Binding IC50

T1 sequence (P21554 whole entry): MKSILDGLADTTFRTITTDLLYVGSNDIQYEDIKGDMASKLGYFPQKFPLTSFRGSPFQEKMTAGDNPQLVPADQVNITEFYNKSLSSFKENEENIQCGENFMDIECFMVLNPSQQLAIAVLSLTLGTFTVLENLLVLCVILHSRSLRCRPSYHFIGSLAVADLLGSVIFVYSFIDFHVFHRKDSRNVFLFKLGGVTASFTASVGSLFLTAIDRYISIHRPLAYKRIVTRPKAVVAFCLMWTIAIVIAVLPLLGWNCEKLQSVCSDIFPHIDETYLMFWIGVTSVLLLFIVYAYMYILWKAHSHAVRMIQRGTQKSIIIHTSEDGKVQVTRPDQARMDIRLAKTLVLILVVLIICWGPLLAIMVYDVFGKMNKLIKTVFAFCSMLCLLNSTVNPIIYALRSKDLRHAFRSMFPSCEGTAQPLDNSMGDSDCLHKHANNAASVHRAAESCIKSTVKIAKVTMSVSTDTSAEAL
Sequence of human CB2 receptor (P34972 whole entry): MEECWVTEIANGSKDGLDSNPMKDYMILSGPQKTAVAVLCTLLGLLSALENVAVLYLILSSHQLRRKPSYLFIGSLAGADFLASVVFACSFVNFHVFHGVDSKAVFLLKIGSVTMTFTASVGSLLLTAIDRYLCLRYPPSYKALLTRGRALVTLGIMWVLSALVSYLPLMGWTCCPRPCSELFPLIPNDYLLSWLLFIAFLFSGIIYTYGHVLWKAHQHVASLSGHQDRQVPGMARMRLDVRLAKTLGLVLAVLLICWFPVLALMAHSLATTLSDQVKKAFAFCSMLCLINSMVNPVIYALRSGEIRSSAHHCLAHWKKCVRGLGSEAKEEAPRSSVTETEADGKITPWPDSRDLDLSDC

CC12CCC(C1)C(C)(C)C2NC(=O)CCc1nn(C2CCCCC2)c2c1CCCC2 (centres unmarked) [Cpd 50, 3-(1-cyclohexyl-4,5,6,7-tetrahydro-1H-indazol-3-yl)-N-(1,3,3-trimethyl-bicyclo[2.2.1]hept-2-yl)-propionamide]
IC50 (human CB1 receptor): 255 nM
IC50 (human CB2 receptor; [1]): 13 nM

O=C(N[C@H]1CCCC[C@H]1CO)c1nn(C2CCCCC2)c2c1CCCC2Cl (stereo partly drawn) [Cpd 60, 7-chloro-1-cyclohexyl-4,5,6,7-tetrahydro-1H-indazole-3-carboxylic acid [(1S,2R)-2-hydroxymethyl-cyclohexyl]-amide]
IC50 (human CB1 receptor): 5230 nM
IC50 (human CB2 receptor; [1]): 515 nM

CC(C)(Cc1nn(C2CCCCC2)c2c1CCCC2)C(=O)NC1C2CC3CC(C2)CC1C3 (centres unmarked) [Cpd 66, N-adamantan-2-yl-3-(1-cyclohexyl-4,5,6,7-tetrahydro-1H-indazol-3-yl)-2,2-dimethyl-propionamide]
IC50 (human CB1 receptor): 3590 nM
IC50 (human CB2 receptor; [1]): 1400 nM

CN(C)C(=O)NC1CCc2c(c(C(=O)NC3C4CC5CC(C4)CC3C5)nn2C2CCCCC2)C1 (centres unmarked) [Cpd 89, 1-cyclohexyl-5-(3,3-dimethyl-ureido)-4,5,6,7-tetrahydro-1H-indazole-3-carboxylic acid adamantan-2-ylamide]
IC50 (human CB1 receptor): 3700 nM
IC50 (human CB2 receptor; [1]): 1.4 nM

CC12CCC(C1)C(C)(C)C2NC(=O)c1nn(C2CCCCC2)c2c1CC(N)CC2 (centres unmarked) [Cpd 92, 5-amino-1-cyclohexyl-4,5,6,7-tetrahydro-1H-indazole-3-carboxylic acid (1,3,3-trimethyl-bicyclo[2.2.1]hept-2-yl)-amide]
IC50 (human CB1 receptor): 1600 nM
IC50 (human CB2 receptor; [1]): 90 nM

CC12CCC(C1)C(C)(C)C2NC(=O)c1nn(C2CCCCC2)c2c1CC(O)CC2 (centres unmarked) [Cpd 93, 1-cyclohexyl-5-hydroxy-4,5,6,7-tetrahydro-1H-indazole-3-carboxylic acid (1,3,3-trimethyl-bicyclo[2.2.1]hept-2-yl)-amide]
IC50 (human CB1 receptor): 1150 nM
IC50 (human CB2 receptor; [1]): 20 nM

CCOC(=O)C1CCc2c(c(C(=O)NC(C)C34CC5CC(CC(C5)C3)C4)nn2C2CCCCC2)C1 (centres unmarked) [Cpd 132]
IC50 (human CB1 receptor): 2900 nM
IC50 (human CB2 receptor; [1]): 25.5 nM

CC(NC(=O)c1nn(C2CCCCC2)c2c1CC(CO)CC2)C12CC3CC(CC(C3)C1)C2 (centres unmarked) [Cpd 143, 1-cyclohexyl-5-hydroxymethyl-4,5,6,7-tetrahydro-1H-indazole-3-carboxylic acid (1-adamantan-1-yl-ethyl)-amide]
IC50 (human CB1 receptor): 2400 nM
IC50 (human CB2 receptor; [1]): 1260 nM

CCOC(=O)[C@H]1C2CCC(C2)[C@H]1NC(=O)c1nn(C2CCCCC2)c2c1CCCC2O (stereo partly drawn) [Cpd 164, (2S,3R)-3-[(1-cyclohexyl-7-hydroxy-4,5,6,7-tetrahydro-1H-indazole-3-carbonyl)-amino]-bicyclo[2.2.1]heptane-2-carboxylic acid ethyl ester]
IC50 (human CB1 receptor): 6010 nM
IC50 (human CB2 receptor; [1]): 490 nM

O=C(Nc1nn(C2CCCCC2)c2c1CCCC2)c1ccc2ccccc2c1 [Cpd 178, naphthalene-2-carboxylic acid (1-cyclohexyl-4,5,6,7-tetrahydro-1H-indazol-3-yl)-amide]
IC50 (human CB2 receptor; [1]): 2900 nM

O=C(Nc1nn(C2CCCCC2)c2c1CCCC2)NC12CC3CC(CC(C3)C1)C2 [Cpd 182, 1-adamantan-1-yl-3-(1-cyclohexyl-4,5,6,7-tetrahydro-1H-indazol-3-yl)-urea]
IC50 (human CB2 receptor; [1]): 28 nM

CC12CCC(C1)C(C)(C)C2NC(=O)c1nn(Cc2ccccc2)c2c1CCCC2 (centres unmarked) [Cpd 194, 1-benzyl-4,5,6,7-tetrahydro-1H-indazole-3-carboxylic acid (1,3,3-trimethyl-bicyclo[2.2.1]hept-2-yl)-amide]
IC50 (human CB1 receptor): 0.1 nM
IC50 (human CB2 receptor; [1]): 0.2 nM

O=C(NC1C2CC3CC(C2)CC1C3)c1nn(C2CCCCC2)c2c1CC(C(=O)O)CC2 (centres unmarked) [Cpd 223, 3-(adamantan-2-ylcarbamoyl)-1-cyclohexyl-4,5,6,7-tetrahydro-1H-indazole-5-carboxylic acid]
IC50 (human CB1 receptor): 170000 nM
IC50 (human CB2 receptor; [1]): 2900 nM

CC(C)(C)CC(C)(C)NC(=O)C1CCc2c(c(C(=O)NC3C4CC5CC(C4)CC3C5)nn2C2CCCCC2)C1 (centres unmarked) [Cpd 228, 1-cyclohexyl-4,5,6,7-tetrahydro-1H-indazole-3,5-dicarboxylic acid 3-adamantan-2-ylamide 5-[(1,1,3,3-tetramethyl-butyl)-amide]]
IC50 (human CB2 receptor; [1]): 250 nM

COc1ccc(C(O)CNC(=O)c2nn(C3CCCCC3)c3c2CCCC3)cc1 (centres unmarked) [Cpd 241, 1-cyclohexyl-4,5,6,7-tetrahydro-1H-indazole-3-carboxylic acid [2-hydroxy-2-(4-methoxy-phenyl)-ethyl]-amide]
IC50 (human CB1 receptor): 3400 nM
IC50 (human CB2 receptor; [1]): 500 nM

O=C(NCC1CCCCC1)c1nn(C2CCCCC2)c2c1CCCC2 [Cpd 304, 1-cyclohexyl-4,5,6,7-tetrahydro-1H-indazole-3-carboxylic acid cyclohexylmethylamide]
IC50 (human CB1 receptor): 160 nM
IC50 (human CB2 receptor; [1]): 20 nM

C[C@@H](NC(=O)C=Cc1nn(Cc2ccccc2)c2c1CCCC2)c1ccccc1 [Cpd 306, 3-(1-benzyl-4,5,6,7-tetrahydro-1H-indazol-3-yl)-N-[(1R)-1-phenyl-ethyl]-acrylamide]
IC50 (human CB2 receptor; [1]): 1800 nM

COC(=O)C(Cc1ccc(OCc2ccccc2)cc1)NC(=O)c1c2c(nn1-c1ccc(OC)cc1)CCCC2 (centres unmarked) [compound 4]
IC50 (human CB2 receptor; [2]): 3690 nM

COc1ccc(-n2nc3c(c2C(=O)NCCc2ccc(N)cc2)CCCC3)cc1 [compound 8]
IC50 (human CB2 receptor; [2]): 21200 nM

CN1C2CCC1CC(NC(=O)c1nn(C3CCCCC3)c3c1CCCC3)C2 (centres unmarked) [compound 46]
IC50 (human CB2 receptor; [1]): 9200 nM

CCOC(=O)c1c(NC(=O)c2nn(C3CCCCC3)c3c2CCCC3)sc2c1CCCCC2 [compound 55]
IC50 (human CB2 receptor; [1]): 7900 nM

CCOC(=O)c1c(NC(=O)c2nn(C3CCCCC3)c3c2CCCC3)sc2c1CCC2 [compound 56]
IC50 (human CB2 receptor; [1]): 20000 nM

CC(C)(C)C1CCc2c(c(C(=O)NC3C4(C)CCC(C4)C3(C)C)nn2-c2ccccc2)C1 (centres unmarked) [compound 111]
IC50 (human CB2 receptor; [1]): 170 nM

CC(C)(C)C1CCc2c(c(C(=O)NC34CC5CC(CC(C5)C3)C4)nn2-c2ccccc2)C1 (centres unmarked) [compound 113]
IC50 (human CB2 receptor; [1]): 770 nM

C[C@@H](NC(=O)c1nn(-c2ccccc2)c2c1CC(C(C)(C)C)CC2)C1CCCCC1 (some centres unmarked) [compound 114]
IC50 (human CB2 receptor; [1]): 530 nM

CCOC(=O)C1CCc2c(c(C(=O)NC3C4CC5CC(C4)CC3C5)nn2-c2ccccc2)C1 (centres unmarked) [compound 115]
IC50 (human CB2 receptor; [1]): 180 nM

CCOC(=O)C1CCc2c(c(C(=O)NCC34CC5CC(CC(C5)C3)C4)nn2-c2ccccc2)C1 (centres unmarked) [compound 117]
IC50 (human CB2 receptor; [1]): 370 nM

CCOC(=O)C1CCc2c(c(C(=O)NC34CC5CC(CC(C5)C3)C4)nn2-c2ccccc2)C1 (centres unmarked) [compound 118]
IC50 (human CB2 receptor; [1]): 400 nM

CCN(C(=O)c1c2c(nn1-c1ccc(OC)cc1)CCCC2)c1ccccc1OC [compound 121]
IC50 (human CB2 receptor; [2]): 6270 nM

O=C(NC1C2CCC(C2)C1C(=O)O)c1nn(C2CCCCC2)c2c1CC(C(=O)O)CC2 (centres unmarked) [compound 138]
IC50 (human CB2 receptor; [2]): 11800 nM

CC12CCC(C1)C(C)(C)C2NC(=O)c1nn(-c2ccccn2)c2c1CCCC2 (centres unmarked) [compound 160]
IC50 (human CB2 receptor; [1]): 3500 nM

CC(NC(=O)c1nn(Cc2ccccc2)c2c1CC(C(=O)O)CC2)C12CC3CC(CC(C3)C1)C2 (centres unmarked) [compound 166]
IC50 (human CB2 receptor; [1]): 1700 nM

CC12CCC(C1)C(C)(C)C2NC(=O)c1nn(C2CCCCC2)c2c1CC(C(N)=O)CC2 (centres unmarked) [compound 170]
IC50 (human CB2 receptor; [1]): 300 nM

O=C(Nc1nn(C2CCCCC2)c2c1CCCC2)c1ccccc1 [compound 186]
IC50 (human CB2 receptor; [2]): 2290 nM

O=C(CNC(=O)c1nn(C2CCCCC2)c2c1CCCC2)c1ccccc1 [compound 188]
IC50 (human CB2 receptor; [1]): 5100 nM

CCOC(=O)[C@H]1C2CCC(C2)[C@H]1NC(=O)c1nn(-c2ccc(F)cc2)c2c1CCCC2CC (some centres unmarked) [compound 191]
IC50 (human CB2 receptor; [1]): 190 nM

O=C(NC1CN2CCC1CC2)c1nn(C2CCCCC2)c2c1CCCC2 (centres unmarked) [compound 225]
IC50 (human CB2 receptor; [2]): 650 nM

CCOC(=O)C1CCc2c(c(C(=O)NN3CCCCC3)nn2C2CCCCC2)C1 (centres unmarked) [compound 229]
IC50 (human CB2 receptor; [1]): 1300 nM

O=C(NC1C2CC3CC(C2)CC1C3)c1nn(Cc2ccccc2)c2c1CC(C(=O)O)CC2 (centres unmarked) [compound 239]
IC50 (human CB2 receptor; [1]): 300 nM

O=C(NCC(O)c1ccc(Br)cc1)c1nn(C2CCCCC2)c2c1CCCC2 (centres unmarked) [compound 240]
IC50 (human CB2 receptor; [1]): 1700 nM

C[C@@H](NC(=O)c1nn(C2CCCCC2)c2c1CC(NC(=O)OC(C)(C)C)CC2)C1CCCCC1 (some centres unmarked) [compound 286]
IC50 (human CB2 receptor; [1]): 2700 nM

O=C(NNC1CCCCCCC1)c1nn(-c2ccc(F)cc2)c2c1CCCC2 [compound 299]
IC50 (human CB2 receptor; [1]): 5520 nM

O=C(Nc1nn(Cc2ccccc2)c2c1CCCC2)NC12CC3CC(CC(C3)C1)C2 [compound 337]
IC50 (human CB2 receptor; [1]): 80 nM
